Measurements reported in the supplement of paper PMC10307832.

Experiments:
Assay in all cases: relative viability (nuclei count vs DMSO), 5 days (fraction); higher = more cells survive
NCI-H1975 = tested on: NCI-H1975
Procedure, shortened: (§1)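 Relative viability is defined as nuclei in treated wells over nuclei in vehicle wells. Duplicate plates were run and medians reported. Lung cancer cell lines in 1536-well plates were dosed by pin tool one day after seeding, with one drug or with a fixed anchor-drug dose plus five library-drug doses (not always all listed) in √10 steps, and nuclei were counted after 5 days.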

NCI-H1623 = tested on: NCI-H1623
Procedure, shortened: as §1

NCI-H1734 = tested on: NCI-H1734
Procedure, shortened: as §1

LXF-289 = tested on: LXF-289
Procedure, shortened: as §1

NCI-H1650 = tested on: NCI-H1650
Procedure, shortened: as §1

HARA = tested on: HARA
Procedure, shortened: as §1

201T = tested on: 201T
Procedure, shortened: as §1

HCC-78 = tested on: HCC-78
Procedure, shortened: as §1

NCI-H1648 = tested on: NCI-H1648
Procedure, shortened: as §1

A549 = tested on: A549
Procedure, shortened: as §1

SMILES: COCC1(CO)C(=O)C2CCN1CC2 (configuration not stated) [PRIMA-1MET] + Cc1nc(Nc2ncc(C(=O)Nc3c(C)cccc3Cl)s2)cc(N2CCN(CCO)CC2)n1 [Dasatinib] (partner 0.075 µM)
- relative viability (NCI-H1975; first compound 0.2 µM): 0.359
- relative viability (NCI-H1975; first compound 0.6325 µM): 0.349
- relative viability (NCI-H1975; first compound 2 µM): 0.366
- relative viability (NCI-H1975; first compound 6.325 µM): 0.375
- relative viability (NCI-H1975; first compound 20 µM): 0.19
- relative viability (NCI-H1623; first compound 0.2 µM): 0.517
- relative viability (NCI-H1623; first compound 0.6325 µM): 0.563
- relative viability (NCI-H1623; first compound 2 µM): 0.518
- relative viability (NCI-H1623; first compound 6.325 µM): 0.577
- relative viability (NCI-H1623; first compound 20 µM): 0.519
- relative viability (NCI-H1734; first compound 0.2 µM): 0.498
- relative viability (NCI-H1734; first compound 0.6325 µM): 0.303
- relative viability (NCI-H1734; first compound 2 µM): 0.426
- relative viability (NCI-H1734; first compound 6.325 µM): 0.384
- relative viability (NCI-H1734; first compound 20 µM): 0.0495
- relative viability (LXF-289; first compound 0.2 µM): 0.277
- relative viability (LXF-289; first compound 0.6325 µM): 0.179
- relative viability (LXF-289; first compound 2 µM): 0.199
- relative viability (LXF-289; first compound 6.325 µM): 0.232
- relative viability (LXF-289; first compound 20 µM): 0.173
- relative viability (NCI-H1650; first compound 0.2 µM): 0.341
- relative viability (NCI-H1650; first compound 0.6325 µM): 0.327
- relative viability (NCI-H1650; first compound 2 µM): 0.337
- relative viability (NCI-H1650; first compound 6.325 µM): 0.282
- relative viability (NCI-H1650; first compound 20 µM): 0.06
- relative viability (HARA; first compound 0.2 µM): 0.303
- relative viability (HARA; first compound 0.6325 µM): 0.257
- relative viability (HARA; first compound 6.325 µM): 0.294
- relative viability (HARA; first compound 20 µM): 0.252
- relative viability (201T; first compound 0.2 µM): 0.635
- relative viability (201T; first compound 0.6325 µM): 0.369
- relative viability (201T; first compound 2 µM): 0.59
- relative viability (201T; first compound 6.325 µM): 0.566
- relative viability (201T; first compound 20 µM): 0.582
- relative viability (HCC-78; first compound 0.2 µM): 0.427
- relative viability (HCC-78; first compound 0.6325 µM): 0.331
- relative viability (HCC-78; first compound 6.325 µM): 0.442
- relative viability (HCC-78; first compound 20 µM): 0.335

SMILES: COCC1(CO)C(=O)C2CCN1CC2 (configuration not stated) [PRIMA-1MET] + CC(=O)c1c(C)c2cnc(Nc3ccc(N4CCNCC4)cn3)nc2n(C2CCCC2)c1=O [Palbociclib] (partner 0.5 µM)
- relative viability (NCI-H1975; first compound 0.2 µM): 0.513
- relative viability (NCI-H1975; first compound 0.6325 µM): 0.483
- relative viability (NCI-H1975; first compound 2 µM): 0.409
- relative viability (NCI-H1975; first compound 6.325 µM): 0.693
- relative viability (NCI-H1975; first compound 20 µM): 0.582
- relative viability (NCI-H1734; first compound 0.2 µM): 0.362
- relative viability (NCI-H1734; first compound 0.6325 µM): 0.306
- relative viability (NCI-H1734; first compound 2 µM): 0.369
- relative viability (NCI-H1734; first compound 6.325 µM): 0.345
- relative viability (NCI-H1734; first compound 20 µM): 0.053
- relative viability (LXF-289; first compound 0.2 µM): 0.642
- relative viability (LXF-289; first compound 0.6325 µM): 0.662
- relative viability (LXF-289; first compound 2 µM): 0.734
- relative viability (LXF-289; first compound 6.325 µM): 0.594
- relative viability (LXF-289; first compound 20 µM): 0.602
- relative viability (NCI-H1650; first compound 0.2 µM): 0.322
- relative viability (NCI-H1650; first compound 0.6325 µM): 0.331
- relative viability (NCI-H1650; first compound 2 µM): 0.317
- relative viability (NCI-H1650; first compound 6.325 µM): 0.315
- relative viability (NCI-H1650; first compound 20 µM): 0.0802
- relative viability (NCI-H1648; first compound 0.2 µM): 0.251
- relative viability (NCI-H1648; first compound 2 µM): 0.283
- relative viability (NCI-H1648; first compound 20 µM): 0.283
- relative viability (HARA; first compound 0.2 µM): 0.252
- relative viability (HARA; first compound 0.6325 µM): 0.318
- relative viability (HARA; first compound 6.325 µM): 0.286
- relative viability (HARA; first compound 20 µM): 0.261
- relative viability (201T; first compound 0.2 µM): 0.386
- relative viability (201T; first compound 0.6325 µM): 0.356
- relative viability (201T; first compound 2 µM): 0.331
- relative viability (201T; first compound 6.325 µM): 0.352
- relative viability (201T; first compound 20 µM): 0.331
- relative viability (HCC-78; first compound 0.2 µM): 0.449
- relative viability (HCC-78; first compound 0.6325 µM): 0.507
- relative viability (HCC-78; first compound 2 µM): 0.397
- relative viability (HCC-78; first compound 6.325 µM): 0.446
- relative viability (HCC-78; first compound 20 µM): 0.427

SMILES: COCC1(CO)C(=O)C2CCN1CC2 (configuration not stated) [PRIMA-1MET] + Nc1ncn([C@H]2C[C@H](O)[C@@H](CO)O2)c(=O)n1 [Decitabine] (partner 2 µM)
- relative viability (NCI-H1975; first compound 0.2 µM): 0.389
- relative viability (NCI-H1975; first compound 0.6325 µM): 0.329
- relative viability (NCI-H1975; first compound 2 µM): 0.343
- relative viability (NCI-H1975; first compound 6.325 µM): 0.431
- relative viability (NCI-H1975; first compound 20 µM): 0.371
- relative viability (NCI-H1734; first compound 0.2 µM): 0.481
- relative viability (NCI-H1734; first compound 0.6325 µM): 0.289
- relative viability (NCI-H1734; first compound 2 µM): 0.456
- relative viability (NCI-H1734; first compound 6.325 µM): 0.474
- relative viability (NCI-H1734; first compound 20 µM): 0.0575
- relative viability (LXF-289; first compound 0.2 µM): 0.383
- relative viability (LXF-289; first compound 0.6325 µM): 0.306
- relative viability (LXF-289; first compound 2 µM): 0.349
- relative viability (LXF-289; first compound 6.325 µM): 0.373
- relative viability (LXF-289; first compound 20 µM): 0.372
- relative viability (A549; first compound 0.2 µM): 0.284
- relative viability (A549; first compound 2 µM): 0.253
- relative viability (A549; first compound 6.325 µM): 0.25
- relative viability (A549; first compound 20 µM): 0.237
- relative viability (NCI-H1650; first compound 0.2 µM): 0.485
- relative viability (NCI-H1650; first compound 0.6325 µM): 0.314
- relative viability (NCI-H1650; first compound 2 µM): 0.314
- relative viability (NCI-H1650; first compound 6.325 µM): 0.382
- relative viability (NCI-H1650; first compound 20 µM): 0.279
- relative viability (NCI-H1648; first compound 0.2 µM): 0.433
- relative viability (NCI-H1648; first compound 2 µM): 0.451
- relative viability (NCI-H1648; first compound 20 µM): 0.475
- relative viability (HARA; first compound 0.2 µM): 0.478
- relative viability (HARA; first compound 0.6325 µM): 0.354
- relative viability (HARA; first compound 2 µM): 0.622
- relative viability (HARA; first compound 6.325 µM): 0.607
- relative viability (HARA; first compound 20 µM): 0.607
- relative viability (201T; first compound 0.2 µM): 0.921
- relative viability (201T; first compound 0.6325 µM): 0.607
- relative viability (201T; first compound 2 µM): 0.762
- relative viability (201T; first compound 6.325 µM): 0.87
- relative viability (201T; first compound 20 µM): 0.896
- relative viability (HCC-78; first compound 0.2 µM): 0.643
- relative viability (HCC-78; first compound 0.6325 µM): 0.598
- relative viability (HCC-78; first compound 2 µM): 0.553
- relative viability (HCC-78; first compound 6.325 µM): 0.697
- relative viability (HCC-78; first compound 20 µM): 0.377
